Results as given in ChEMBL document CHEMBL1131717, “Uncarinic acids: phospholipase Cgamma1 inhibitors from hooks of Uncaria rhynchophylla” (Bioorg Med Chem Lett, 1999).
Values after ≈ are worked out from the molar mass of the structure shown.

Columns and labels:
HT1197 = experiment: Growth inhibitory effect of compound was measured on HT1197 human bladder adenocarcinoma cancer cell line; type: functional, cell-based
A549 = experiment: Growth inhibitory effect of compound was measured on A-549 human lung adenocarcinoma cancer cell line; type: functional, cell-based
MCF7 = experiment: Growth inhibitory effect of compound was measured on MCF-7 human breast adenocarcinoma cancer cell line; type: functional, cell-based
[1] = target: T1, 1-phosphatidylinositol 4,5-bisphosphate phosphodiesterase gamma-1 (Homo sapiens, UniProt P19174); experiment: Inhibitory concentration was evaluated against phospholipase C-gamma1
T1 sequence (P19174 whole entry): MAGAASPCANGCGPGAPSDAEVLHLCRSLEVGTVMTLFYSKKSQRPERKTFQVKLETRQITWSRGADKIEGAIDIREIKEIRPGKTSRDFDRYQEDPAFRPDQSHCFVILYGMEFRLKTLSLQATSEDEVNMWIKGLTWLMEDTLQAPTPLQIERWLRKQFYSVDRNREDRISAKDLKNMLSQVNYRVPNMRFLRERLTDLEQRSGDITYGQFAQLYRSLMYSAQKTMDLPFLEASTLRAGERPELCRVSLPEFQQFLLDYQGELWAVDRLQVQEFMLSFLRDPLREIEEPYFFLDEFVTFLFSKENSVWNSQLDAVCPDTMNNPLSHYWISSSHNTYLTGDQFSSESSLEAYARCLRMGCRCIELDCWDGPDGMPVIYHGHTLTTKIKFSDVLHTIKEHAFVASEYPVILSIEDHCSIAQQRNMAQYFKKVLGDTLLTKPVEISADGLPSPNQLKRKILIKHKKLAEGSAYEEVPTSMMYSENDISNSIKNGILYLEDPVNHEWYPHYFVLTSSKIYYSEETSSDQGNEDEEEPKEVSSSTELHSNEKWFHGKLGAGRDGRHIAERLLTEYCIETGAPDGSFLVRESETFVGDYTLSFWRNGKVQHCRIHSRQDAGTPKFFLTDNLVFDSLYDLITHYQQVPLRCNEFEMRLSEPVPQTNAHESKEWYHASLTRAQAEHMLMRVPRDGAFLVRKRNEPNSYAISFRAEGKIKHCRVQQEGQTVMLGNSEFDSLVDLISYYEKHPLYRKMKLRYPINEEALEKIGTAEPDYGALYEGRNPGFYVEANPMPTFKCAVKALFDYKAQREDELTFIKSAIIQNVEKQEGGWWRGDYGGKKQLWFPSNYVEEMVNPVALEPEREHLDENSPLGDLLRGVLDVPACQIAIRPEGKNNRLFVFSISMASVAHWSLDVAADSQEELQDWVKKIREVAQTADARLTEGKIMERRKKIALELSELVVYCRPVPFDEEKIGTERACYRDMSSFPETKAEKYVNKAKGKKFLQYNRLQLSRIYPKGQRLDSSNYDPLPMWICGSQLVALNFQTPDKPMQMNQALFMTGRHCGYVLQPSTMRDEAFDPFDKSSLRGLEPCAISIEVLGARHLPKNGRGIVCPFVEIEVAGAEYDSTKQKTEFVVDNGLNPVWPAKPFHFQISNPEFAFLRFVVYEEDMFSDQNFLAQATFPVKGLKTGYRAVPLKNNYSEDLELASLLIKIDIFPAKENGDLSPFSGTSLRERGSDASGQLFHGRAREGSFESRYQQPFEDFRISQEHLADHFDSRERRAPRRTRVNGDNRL

HCT-15 = experiment: Growth inhibitory effect of compound was measured on HCT-15 human colon adenocarcinoma cancer cell line; type: functional, cell-based

Structure (SMILES) | IC50 (HT1197) [µg/mL] | IC50 (A549) [µg/mL] | IC50 (MCF7) [µg/mL] | IC50 [1] [µM] | IC50 (HCT-15) [µg/mL]
COc1cc(/C=C/C(=O)OC[C@@]23CC[C@@]4(C(=O)O)CCC(C)(C)C[C@H]4C2=CCC2[C@@]4(C)CC[C@H](O)C(C)(C)C4CC[C@]23C)ccc1O (stereo not given in full) | 3.53 (≈ 5.44 µM) | 0.73 (≈ 1.13 µM) | 2.03 (≈ 3.13 µM) | 35.7 | 1.41 (≈ 2.17 µM)
COc1cc(/C=C\C(=O)OC[C@@]23CC[C@@]4(C(=O)O)CCC(C)(C)C[C@H]4C2=CCC2[C@@]4(C)CC[C@H](O)C(C)(C)C4CC[C@]23C)ccc1O (stereo not given in full) | 2.34 (≈ 3.61 µM) | 1.79 (≈ 2.76 µM) | 2.59 (≈ 3.99 µM) | 44.6 | 1.44 (≈ 2.22 µM)
